For this assay, the target named is T1, Muscarinic acetylcholine receptor M2 (Homo sapiens, UniProt P08172).
T1 sequence (P08172 whole entry): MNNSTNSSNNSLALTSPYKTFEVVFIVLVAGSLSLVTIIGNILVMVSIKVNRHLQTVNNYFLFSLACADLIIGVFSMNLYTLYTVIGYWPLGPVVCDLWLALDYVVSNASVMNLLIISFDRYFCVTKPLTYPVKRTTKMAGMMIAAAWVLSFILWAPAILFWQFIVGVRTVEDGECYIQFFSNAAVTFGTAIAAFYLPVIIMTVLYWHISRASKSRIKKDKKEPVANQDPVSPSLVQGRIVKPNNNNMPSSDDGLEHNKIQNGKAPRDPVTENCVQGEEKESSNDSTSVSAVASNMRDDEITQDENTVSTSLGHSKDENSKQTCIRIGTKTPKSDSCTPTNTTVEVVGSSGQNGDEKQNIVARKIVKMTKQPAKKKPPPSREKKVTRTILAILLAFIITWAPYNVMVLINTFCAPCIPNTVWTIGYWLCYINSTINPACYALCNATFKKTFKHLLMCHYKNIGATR
Also: assay procedure not described here.

Compound `CN1CCCC(CC2c3ccccc3Sc3ccccc32)C1` (stereo unspecified) [METHIXENE] came in with an AC50 of 5.3 nM.

What is called AC50 is the midpoint of the concentration-response curve, whichever way the signal moves. A low value points to activity at low concentration.

Source of the values: ChEMBL document CHEMBL5291721, “A preclinical secondary pharmacology resource illuminates target-adverse drug reaction associations of marketed drugs” (Nat Commun, 2023).
